Measured values: publication PMC11345830, “Exploration of Hydrazide-Based HDAC8 PROTACs for the Treatment of Hematological Malignancies and Solid Tumors” (Journal of Medicinal Chemistry, 2024)

How the values were obtained:
Format in all cases: cell-based
[1] = target: T1, HDAC11 (Homo sapiens, UniProt Q96DB2); assay: HDAC11 level in Jurkat cells, Western blot; conditions: 6 h
T1 construct: endogenous in cells; host or cells: Jurkat
T1 sequence (Q96DB2 1-347): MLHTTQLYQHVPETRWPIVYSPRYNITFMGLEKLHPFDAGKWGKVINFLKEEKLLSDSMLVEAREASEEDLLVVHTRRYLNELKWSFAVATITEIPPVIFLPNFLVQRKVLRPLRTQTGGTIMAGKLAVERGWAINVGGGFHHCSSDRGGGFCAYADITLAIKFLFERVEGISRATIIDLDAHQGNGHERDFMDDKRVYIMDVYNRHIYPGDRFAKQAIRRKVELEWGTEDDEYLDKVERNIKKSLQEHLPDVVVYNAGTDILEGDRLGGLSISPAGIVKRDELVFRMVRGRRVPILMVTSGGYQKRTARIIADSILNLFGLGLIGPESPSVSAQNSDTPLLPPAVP

[2] = test system: HCT116 cells; assay: Apoptosis assay (Annexin V-FITC/PI flow cytometry), HCT116; set-up: Q1 (flow cytometry quadrant) / Q2 (flow cytometry quadrant) / Q3 (flow cytometry quadrant) / Q4 (flow cytometry quadrant): unit not given here; conditions: 48 h
Procedure: The cell apoptosis assay was performed using eBioscience Annexin V-FITC/PI Apoptosis Detection Kit (Thermo Fisher Scientific, Carlsbad, CA, USA). Jurkat cells (5 × 10^5) and HCT116 cells (3 × 10^5) were treated with different concentrations of test compounds for 24 or 48 h. Cells were harvested after incubation, washed twice in cold PBS, centrifuged, and resuspended in 1X annexin-binding buffer. According to the manufacturer’s instructions, cells were incubated with Annexin V and Propidium iodide (PI) sequentially. All samples were analyzed by NovoCyte Quanteon Flow Cytometer (Agilent Technologies, CA, USA).

[3] = test system: Jurkat cells; assay: Cell death determination by flow cytometry (Hoechst 33342/PI), Jurkat; conditions: 5 μM, 48 h
Procedure: Jurkat cells (5 × 10^5) were seeded on 6-well plates. The next day, cells were treated with indicated concentrations of compounds for 48 h. Cells were harvested after incubation, washed twice in cold PBS, centrifuged, and stained with 7 μM Hoechst 33342 and 2 μM of Propidium iodide (PI) sequentially, and then determined by NovoCyte Quanteon Flow Cytometer (Agilent Technologies, CA, USA). Cells stained only with Hoechst 33342 were counted as live cells, while cells stained with both Hoechst 33342 and PI were counted as dead cells.

In the case of CCCCCCNNC(=O)c1ccc(CNC(=O)CN2CCC(c3ccc(NC4CCC(=O)NC4=O)cc3)CC2)cc1 (stereo not drawn) [Z16, 2-(4-(4-((2,6-Dioxopiperidin-3-yl)amino)phenyl)piperidin-1-yl)-N-(4-(2-hexylhydrazine-1-carbonyl)benzyl)acetamide], the “HDAC11 degradation (in words)” value [1] is reported as “no obvious”, the “Q1 (flow cytometry quadrant)” value ([2]; 1.1 μM) is reported as 4.38 and the “Q2 (flow cytometry quadrant)” value ([2]; 1.1 μM) is reported as 5.93. The “Q3 (flow cytometry quadrant)” value ([2]; 1.1 μM) was 10.3, the “Q4 (flow cytometry quadrant)” value ([2]; 1.1 μM) was 79.4 and the “Q1 (flow cytometry quadrant)” value ([2]; 3.3 μM) was 2.37. For the same compound, the “Q2 (flow cytometry quadrant)” value ([2]; 3.3 μM) was 32.3, the “Q3 (flow cytometry quadrant)” value ([2]; 3.3 μM) was 44.6 and the “Q4 (flow cytometry quadrant)” value ([2]; 3.3 μM) was 20.7. For the same compound, the apoptosis induced ([2]; 3.3 μM) was “over 70%”, the “Q1 (flow cytometry quadrant)” value ([2]; 10 μM) was 2.80 and the “Q2 (flow cytometry quadrant)” value ([2]; 10 μM) was 57.3. The “Q3 (flow cytometry quadrant)” value ([2]; 10 μM) was 24.9, the “Q4 (flow cytometry quadrant)” value ([2]; 10 μM) was 15.1 and the cell death induced [3] was 10%.
